We go through twelve compounds from US4223031A, “Azolopyrimidinones” (priority 1978, dated 1980).

Series [1] deals with passive cutaneous anaphylaxis reaction (PCA). The experiment in a line: passive cutaneous anaphylaxis reaction (PCA) in the rat. It counts as in vivo. As to conditions: for antiallergic activity: rat PCA, result in words; for PCA Response, percent inhibition at the dose specified / ED50: rat; for ED50: read-out: PCA Response, ED 50. As for the experimental part:
Twelve days after injection, the serum is collected and the antibody titer is determined. The sera which contain sufficient antibody to cause a 10 mm. spot in the dorsal skin of the rat in the PCA test after a 10-fold dilution are pooled. […] The selected reaginic anti-sera are stored frozen until use. For carrying out the test, groups of 5 to 10 male Sprague-Dawley (Carworth Farms) rats, each rat weighing 100-150 g., are used. Forty-eight hours prior to the test, the animals are passively sensitized by intradermal injection of 0.1 ml. of the above diluted antiserum at various locations on the shaved skin of the back. A dilution of antiserum is used so that a spot following challenge of 20-25 mm. in diameter is obtained. Challenge consists of an intravenous injection of 25 mg./kg. of body weight of egg albumin and a like amount of Evan's blue dye in saline. […] A latent period of 48 hrs. is allowed before the animals are treated with the test drug administered by either intraperitoneal or intravenous injection or orally by gavage. Challenge as described above is given 15 min. subsequent to treatment with the test drug. The response to the antigen challenge in the sensitized localities on the skin is an increased capillary permeability and leakage of the blue dye into the area surrounding the sensitized site. The PCA response is scored by measuring the mean spot diameter on the excised and reversed skin 20-30 min. after challenge. In each experiment a group of control animals receiving no drug is employed. The percent inhibition of the PCA is calculated by determining the mean diameters of the spots in the control and treated animals and computing the difference between the squares of the mean diameters of the control animals and the treated animals and expressing this difference as a percentage of the square of the mean diameter of the control animals. Results are expressed as percent inhibition. […] In other modifications, various time intervals are allowed between drug treatment and challenge to ascertain the duration of drug effect.

The test system of series [2] is guinea pig trachea. As to the kind of experiment: relaxation of the spontaneous tonus of the isolated guinea pig trachea (tracheal spiral) in vitro. As to conditions: for relaxation of the spontaneous tonus of the guinea pig trachea in vitro: guinea pig trachea / tracheal spiral, result in words. As to the method: The new compounds of Formulas III and IV are also considered part of the present invention since they are useful as intermediates for the production of the substances of Formula I. Some of the substances of Formulas III and IV also have biological utility in addition to their utility as intermediates. […] It is 13.2 times as potent as theophylline in relaxing the spontaneous tonus of the isolated guinea pig tracheal spiral. […] In both instances, the drug was administered orally.

Series [3] is described as follows: in vivo. As to conditions: po, rat, treated orally, read-out: approximate LD50.

Where two headings read alike, the source gives them in different places.

In the case of `Cc1csc(NC=C(C#N)c2nnn[nH]2)n1` [Example 17, 3-[(4-Methylthiazol-2-yl)amino]-2-(1H-tetrazol-5-yl)-2-propenenitrile], the antiallergic activity result in series [1] is “antiallergic activity similar to those substances of Formula I”. For the same compound, the “PCA Response, percent inhibition at the dose specified” value (shortened to “PCA Response, percent inhibition”) in series [1] (25 mg/kg, p.o.) amounted to 36.7%.
As to `O=c1c(-c2nnn[nH]2)cnc2sccn12` [Example 33, 6-(1H-Tetrazol-5-yl)-5H-thiazolo[3,2-a]-pyrimidin-5-one], the “PCA Response, percent inhibition” value in series [1] (10 mg/kg, p.o.) came out at 57%.
Take `COc1ccc2c(c1)sc1ncc(-c3nnn[nH]3)c(=O)n12` [Example 31, 8-Methoxy-3-(1H-tetrazol-5-yl)-4H-pyrimido-[2,1-b]benzothiazol-4-one]: the ED50 in series [1] (po, p.o.) was 1.88 mg/kg. Further, in series [2], the “relaxation of the spontaneous tonus of the guinea pig trachea in vitro” value (“relaxation” for short) is given as “cause relaxation”.
As for `N#CC(=CNc1nc2ccccc2s1)c1nnn[nH]1` [Example 14, N-[2-Cyano-2-(1H-tetrazol-5-yl)ethenyl]-benzothiazol-2-amine], the ED50 in series [1] (po, p.o.) is 32 mg/kg. For the same compound, the antiallergic activity result in series [1] is “antiallergic activity similar to those substances of Formula I”.
Consider `Cc1csc2ncc(-c3nnn[nH]3)c(=O)n12` [Example 28, 3-Methyl-6-(1H-tetrazol-5-yl)-5H thiazolo[3,2-a]pyrimidine-5-one], for which, in series [1] (25 mg/kg, p.o.), the “PCA Response, percent inhibition” value was found to be 39%. The “relaxation” value in series [2] was “cause relaxation”.
Regarding `O=c1c(-c2nnn[nH]2)cnc2sc3ccccc3n12` [Example 24, 3-(1H-Tetrazol-5-yl)-4H-pyrimido[2,1-b]-benzothiazol-4-one], the ED50 is 0.0049 mg/kg in series [1] (iv, i.v.) and 0.064 mg/kg in series [1] (po, p.o.). For the same compound, the “relaxation” value in series [2] is “cause relaxation”. Moreover, the LD50 in series [3] fell in the range of 2000 to 5000 mg/kg.
Turning to `Cc1csc(NC=C(C#N)C#N)n1` [Example 5, 2-[[(4-methylthiazol-2-yl)amino]methylene]propanedinitrile], the “relaxation” value in series [2] is reported as “substantial tracheal relaxant action”. For the same compound, the “potency relative to theophylline in relaxing the spontaneous tonus of the isolated guinea pig tracheal spiral” value in series [2] (isolated guinea pig tracheal spiral) is on record as 13.2 times as potent as theophylline.
On to `N=c1c(-c2nnn[nH]2)cnc2[nH]cnn12` [Example 15, 3,7-Dihydro-6-(1H-tetrazol-5-yl)-s-triazolo-[1,5-a]pyrimidin-7-imine], for which the “PCA Response, percent inhibition” value in series [1] (10 mg/kg, p.o.) stood at 36.1%. For the same compound, in series [2], the “relaxation” value is “inactive”.
On to `N=c1c(-c2nnn[nH]2)cnc2sccn12` [Example 22, 6-(1H-Tetrazol-5-yl)-5H-thiazole[3,2-a]-pyrimidine-5-imine], for which the “PCA Response, percent inhibition” value in series [1] (10 mg/kg, p.o.) is on record as 22.4%.
Consider `Cc1cc2sc3ncc(-c4nnn[nH]4)c(=O)n3c2cc1C` [Example 32, 7,8-Dimethyl-3-(1H-tetrazol-5-yl)-4H-pyrimido[2,1-b]benzothiazol-4-one], for which the “PCA Response, percent inhibition” value in series [1] (25 mg/kg, p.o.) is listed as 34.9%. Besides, the “relaxation” value in series [2] is listed as “cause relaxation”.
On to `Cl.N=c1c(-c2nnn[nH]2)cnc2sc3ccccc3n12` [Example 23, 3-(1H-Tetrazol-5-yl)-4H-pyrimido[2,1-b]-benzothiazol-4-imine Hydrochloride], for which the ED50 in series [1] (po, p.o.) was 2.9 mg/kg. Moreover, in series [2], the “relaxation” value is on record as “cause relaxation”.
`Cc1cc(C)c2sc3ncc(-c4nnn[nH]4)c(=O)n3c2c1` [Example 25, 7,9-Dimethyl-3-(1H-tetrazol-5-yl)-4H-pyrimido[2,1-b]benzothiazol-4-one]: the “relaxation” value in series [2] is “cause relaxation”.
